The test system of assay [1] is ventricular myocyte membrane adenylyl cyclase. Nature of the assay: Adenylyl cyclase activity of ventricular myocyte membranes. It is filed as biochemical, rat. Particulars: adenosine at 0 to 1 mM, absence or presence of 1 μM DPCPX; ventricular myocyte membranes.
Assay [2] concerns rat ventricular myocytes. Nature of the assay: Contractile function of individual ventricular myocytes (line scan camera edge detection, paced at 0.5 Hz). It is filed as cell-based.
Where [3] appears, read: 100 μM adenosine administered together with 0.2 μM DPCPX.
Where [4] appears, read: Table 6, 10^-5 M SHA-082, 10^-5 M NECA, 10^-4 M adenosine, 2 × 10^-7 M DPCPX, 10^-5 M CGS-15943, mean ± SE, N = 6.

On to `Nc1ncnc2c1ncn2[C@@H]1O[C@H](CO)[C@@H](O)[C@H]1O` [adenosine], for which the “adenylyl cyclase activity above basal levels” value in assay [1] is reported as “did not increase”. In addition, in assay [2] (setting [3]), the “increase in +dL/dtmax” value is on record as 29%, the “increase in DS” value was found to be 20%, the “increase in LC” value was 35% and the “increase in TPS” value turned out to be 27%. In addition, the “increase in TR” value in assay [2] (setting [3]) was found to be 37%. Besides, the “effect on myocyte contractility when administered alone” value in assay [2] (100 μM adenosine or 0.2 μM DPCPX) was “without effect”. Besides, in assay [2] (setting [4]), the “+dL/dtmax, maximal rate of shortening” value was 180 ± 10 μm/msec; the “-dL/dtmax, maximal rate of relaxation” value is recorded as 151 ± 10 μm/msec; the “DS, duration of shortening” value is 293 ± 16 ms; the “LC, maximum length change (shortening) with contraction” value turned out to be 16 ± 1 μm. Also, in assay [2] (setting [4]), the “TPS, time-to-peak shortening” value was found to be 120 ± 4 ms and the “TR, time to 75% relaxation” value came to 281 ± 12 ms.

Source of the values: patent publication US5629298A, “Adenosine as a positive inotrop in the compromised heart” (University of Massachusetts Medical Center, priority 1995, dated 1997).
